The text below walks through data of US20230069722A1, “TUBULYSINS AND PROTEIN-TUBULYSIN CONJUGATES” (priority 2020, published 2023).

Read-outs that look alike come from different tables or passages of the source.

In this experiment the test system is HCT15 cells. The experiment is described as follows: MDR cell based killing assay, HCT15 cells with or without Verapamil (CellTiter-Glo). On the set-up: species or system human. As to conditions: for IC50: Homo sapiens. The protocol: To test the ability of the disclosed tubulysin payloads or prodrug payloads to kill human cell lines, an in vitro cytotoxicity assay can be performed. In vitro cytotoxicity of the disclosed payloads, as well as reference compounds, are evaluated using the CellTiter-Glo Assay Kit (Promega, Cat # G7573), in which the quantity of ATP present is used to determine the number of viable cells in culture. For the assay, C4-2, HEK293, or T47D cells are seeded at 4000 cells/well on Nunclon white 96-well plates in complete growth medium (DME high glucose:Ham's F12 at 4:1, 10% FBS, 100 units/ml Penicillin, 100 ug/ml streptomycin, 53 ug/ml glutatmine, 10 ug/ml insulin, 220 ng/ml biotin, 12.5 pg/ml T3, 12.5 ug/ml Adenine, 4 ug/ml transferrin for C42 cells; DME high glucose, 10% FBS, 100 units/ml Penicillin, 100 ug/ml streptomycin, 53 ug/ml glutatmine for HEK293; RPMI, 10% FBS, 100 units/ml Penicillin, 100 ug/ml streptomycin, 53 ug/ml glutatmine, 10 ug/ml insulin, 10 mM HEPEs, 200 nM Sodium Pyruvate for T47D cells) and grown overnight at 37° C. in 5% CO2. For cell viability curves, 1:3 serially diluted payloads are added to the cells at final concentrations ranging from 100 nM to 15 pM, including a no treatment control group, and are then incubated for 5 days. After the 5-day incubation, cells are incubated at room temperature with 100 μL of CellTiter-Glo reagents for 10 minutes. Relative luminescence units (RLU) can be determined on a Victor plate reader (PerkinElmer). The IC50 values are determined from a four-parameter logistic equation over a 10-point response curve (GraphPad Prism). All IC50 values are expressed in molar (M) concentration. The percent cell killing (% kill) at the maximum concentration tested is estimated from the following formula (100−% viable cells). Averages±standard deviation (SD) can be included where replicate experiments are performed.
In vitro cytotoxicity of the disclosed payloads as well as reference compounds are evaluated similarly as described above except using 1000 HCT15 cells, a colorectal carcinoma cell line, in growth medium (RPMI, 10% FBS, 100 units/ml Penicillin, 100 ug/ml streptomycin, 53 ug/ml glutatmine) with or without 5 ug/mL of Verapamil.
For each payload or prodrug payload, the HCT-15 IC50 in the absence of Verapamil is divided by the HCT-15 IC50 in the presence of Verapamil (HCT-15 IC50/HCT-15+Verapamil IC50). […] The reference compound, (MMAE), can have a ratio of 23.7. […]
In general terms: ATP-based viability assays read luminescence as a measure of living cells.

[1] abbreviates: HCT-15, read-out: HCT-15 with verapamil IC50.

`CCCCCCN(C(=O)[C@@H](NC(=O)[C@H]1CCCCN1C)[C@@H](C)CC)[C@H](C[C@@H](OC(C)=O)c1nc(C(=O)N[C@@H](Cc2ccc(NC(=O)CO)cc2)CC(C)(C)C(=O)O)cs1)C(C)C` [Compound P29, (4S)-4-({2-[(1R,3R)-1-(acetyloxy)-3-[(2S,3S)—N-hexyl-3-methyl-2-{[(2R)-1-methylpiperidin-2-yl]formamido}pentanamido]-4-methylpentyl]-1,3-thiazol-4-yl}formamido)-5-[4-(2-hydroxyacetamido)phenyl]-2,2-dimethylpentanoic Acid]: the IC50 (as a rule, the concentration needed to halve the response being measured) stood at 4.68 nM (HCT-15, read-out: HCT-15 IC50) and 0.67 nM under setting [1]. In addition, the “HCT-15 with verapamil Ratio to Xa = H” value (IC50 ratio to parent payload with Xa = H, with verapamil) is 35x. Moreover, the “HCT-15 Ratio to Xa = H” value (IC50 ratio to parent payload with Xa = H, without verapamil) is 104x.

For the molecule `CCCCCCN(C(=O)[C@@H](NC(=O)[C@H]1CCCCN1C)[C@@H](C)CC)[C@H](C[C@@H](OCC)c1nc(C(=O)NS(=O)(=O)Cc2ccc(N)cc2)cs1)C(C)C` [Compound P45, N-[(4-aminophenyl)methanesulfonyl]-2-[(1R,3R)-1-ethoxy-3-[(2S,3S)—N-hexyl-3-methyl-2-{[(2R)-1-methylpiperidin-2-yl]formamido}pentanamido]-4-methylpentyl]-1,3-thiazole-4-carboxamide], the IC50 (HCT-15, read-out: HCT-15 IC50) amounted to 75.7 nM.

For the molecule `C#CCCCON(C(=O)[C@@H](NC(=O)[C@H]1CCCCN1C)[C@@H](C)CC)[C@H](C[C@@H](OC(C)=O)c1nc(C(=O)NS(=O)(=O)Cc2ccc(N)cc2)cs1)C(C)C` [Compound P49, (1R,3R)-1-(4-{[(4-aminophenyl)methanesulfonyl]carbamoyl}-1,3-thiazol-2-yl)-4-methyl-3-[(2S,3S)-3-methyl-2-{[(2R)-1-methylpiperidin-2-yl]formamido}-N-(pent-4-yn-1-yloxy)pentanamido]pentyl Acetate], the IC50 (HCT-15, read-out: HCT-15 IC50) turned out to be 163 nM.

As for `CCCCCON(C(=O)[C@@H](NC(=O)[C@H]1CCCCN1)[C@@H](C)CC)[C@H](C[C@@H](OC(C)=O)c1nc(C(=O)N[C@@H](Cc2ccc(N)cc2)CC(C)(C)C(=O)O)cs1)C(C)C` [Compound P36, (4S)-4-({2-[(1R,3R)-1-(acetyloxy)-4-methyl-3-[(2S,3S)-3-methyl-N-(pentyloxy)-2-[(2R)-piperidin-2-ylformamido]pentanamido]pentyl]-1,3-thiazol-4-yl}formamido)-5-(4-aminophenyl)-2,2-dimethylpentanoic Acid], the IC50 (HCT-15, read-out: HCT-15 IC50) is 12.2 nM.

On to `C#CCCCON(C(=O)[C@@H](NC(=O)[C@H]1CCCCN1C)[C@@H](C)CC)[C@H](C[C@@H](O)c1nc(C(=O)N[C@@H](Cc2ccc(N)cc2)CC(C)(C)C(=O)O)cs1)C(C)C` [Compound P33, (4S)-5-(4-aminophenyl)-4-({2-[(1R,3R)-1-hydroxy-4-methyl-3-[(2S,3S)-3-methyl-2-{[(2R)-1-methylpiperidin-2-yl]formamido}-N-(pent-4-yn-1-yloxy)pentanamido]pentyl]-1,3-thiazol-4-yl}formamido)-2,2-dimethylpentanoic Acid], for which the IC50 is, setting by setting: (HCT-15, read-out: HCT-15 IC50) 81.7 nM; under setting [1], 28.1 nM.

For the molecule `C#CCCCON(C(=O)[C@@H](NC(=O)[C@H]1CCCCN1C)[C@@H](C)CC)[C@H](C[C@@H](OC(C)=O)c1nc(C(=O)N[C@@H](Cc2ccc(N)cc2)CC(C)(C)C(=O)O)cs1)C(C)C` [Compound P34, (4S)-4-({2-[(1R,3R)-1-(acetyloxy)-4-methyl-3-[(2S,3S)-3-methyl-2-{[(2R)-1-methylpiperidin-2-yl]formamido}-N-(pent-4-yn-1-yloxy)pentanamido]pentyl]-1,3-thiazol-4-yl}formamido)-5-(4-aminophenyl)-2,2-dimethylpentanoic Acid], the IC50 is, setting by setting: (HCT-15, read-out: HCT-15 IC50) 0.41 nM; under setting [1], 0.24 nM.

For `CCCCCCN(C(=O)[C@@H](NC(=O)[C@H]1CCCCN1)[C@@H](C)CC)[C@H](C[C@@H](OC(C)=O)c1nc(C(=O)N[C@@H](Cc2ccc(N)c(F)c2)CC(C)(C)C(=O)O)cs1)C(C)C` [Compound P12, (4S)-4-({2-[(1R,3R)-1-(acetyloxy)-3-[(2S,3S)—N-hexyl-3-methyl-2-[(2R)-piperidin-2-ylformamido]pentanamido]-4-methylpentyl]-1,3-thiazol-4-yl}formamido)-5-(4-amino-3-fluorophenyl)-2,2-dimethylpentanoic Acid], the IC50 runs as follows: (HCT-15, read-out: HCT-15 IC50) 0.34 nM; under setting [1], 0.03 nM.

Regarding `CCCCCCN(C(=O)[C@@H](NC(=O)[C@H]1CCCCN1C)[C@@H](C)CC)[C@H](C[C@@H](OC(=O)NCCOCCOCCOCCN)c1nc(C(=O)N[C@@H](Cc2ccc(F)cc2)CC(C)(C)C(=O)O)cs1)C(C)C` [Compound P11, (4S)-4-({2-[(1R,3R)-1-{[(2-{2-[2-(2-aminoethoxy)ethoxy]ethoxy}ethyl)carbamoyl]oxy}-3-[(2S,3S)—N-hexyl-3-methyl-2-{[(2R)-1-methylpiperidin-2-yl]formamido}pentanamido]-4-methylpentyl]-1,3-thiazol-4-yl}formamido)-5-(4-fluorophenyl)-2,2-dimethylpentanoic Acid], the IC50 (HCT-15, read-out: HCT-15 IC50) was 157 nM.

Regarding `CCCCCCN(C(=O)[C@@H](NC(=O)[C@H]1CCCCN1C)[C@@H](C)CC)[C@H](C[C@@H](OC(C)=O)c1nc(C(=O)N[C@@H](Cc2ccc(N)cc2)CC(C)(C)C(=O)O)cs1)C(C)C` [Compound P7, (4S)-4-({2-[(1R,3R)-1-(acetyloxy)-3-[(2S,3S)—N-hexyl-3-methyl-2-{[(2R)-1-methylpiperidin-2-yl]formamido}pentanamido]-4-methylpentyl]-1,3-thiazol-4-yl}formamido)-5-(4-aminophenyl)-2,2-dimethylpentanoic Acid], the IC50 worked out at 0.02 nM (HCT-15, read-out: HCT-15 IC50) and 0.02 nM under setting [1].

Consider `CCCCCCN(C(=O)[C@@H](NC(=O)[C@H]1CCCCN1C)[C@@H](C)CC)[C@H](C[C@@H](OC(C)=O)c1nc(C(=O)N[C@@H](Cc2ccc(F)cc2)CC(C)(C)C(=O)NS(=O)(=O)c2ccc(N)cc2)cs1)C(C)C` [Compound P47, (1R,3R)-1-(4-{[(2S)-4-[(4-aminobenzenesulfonyl)carbamoyl]-1-(4-fluorophenyl)-4,4-dimethylbutan-2-yl]carbamoyl}-1,3-thiazol-2-yl)-3-[(2S,3S)—N-hexyl-3-methyl-2-{[(2R)-1-methylpiperidin-2-yl]formamido}pentanamido]-4-methylpentyl Acetate], for which, for the setting “HCT-15, read-out: HCT-15 IC50”, the IC50 was 53.5 nM.

Turning to `CCCCCCN(C(=O)[C@@H](NC(=O)[C@@]1(C)CCCN1)[C@@H](C)CC)[C@H](C[C@@H](OC(=O)NC)c1nc(C(=O)N[C@@H](Cc2ccc(O)cc2)CC(C)(C)C(=O)O)cs1)C(C)C` [Compound P23, (4S)-4-({2-[(1R,3R)-3-[(2S,3S)—N-hexyl-3-methyl-2-{[(2R)-2-methylpyrrolidin-2-yl]formamido}pentanamido]-4-methyl-1-[(methylcarbamoyl)oxy]pentyl]-1,3-thiazol-4-yl}formamido)-5-(4-hydroxyphenyl)-2,2-dimethylpentanoic Acid], the IC50 reads like this: (HCT-15, read-out: HCT-15 IC50) 3.6 nM; under setting [1], 0.06 nM.

With `CCCCCCN(C(=O)[C@@H](NC(=O)[C@H]1CCCCN1C)[C@@H](C)CC)[C@H](C[C@@H](O)c1nc(C(=O)N[C@@H](Cc2ccc(N)cc2)CC(C)(C)C(=O)O)cs1)C(C)C` [Compound P6, (4S)-5-(4-aminophenyl)-4-({2-[(1R,3R)-3-[(2S,3S)—N-hexyl-3-methyl-2-{[(2R)-1-methylpiperidin-2-yl]formamido}pentanamido]-1-hydroxy-4-methylpentyl]-1,3-thiazol-4-yl}formamido)-2,2-dimethylpentanoic Acid], the IC50 worked out at 16.3 nM (HCT-15, read-out: HCT-15 IC50) and 0.78 nM under setting [1].
